Test results taken from US20210284621A1 (priority 2018, published 2021).
Where two headings read alike, the source gives them in different places.

What was measured:
[1] = biological target: CB2 receptor (Homo sapiens, UniProt P34972); experiment: CB2 competitive radioligand binding assay ([3H] WIN-55,212-2); set-up: expressed in transfected cells; host or cells: CHO-K1 cells; conditions: for inhibition at 0.05 µM: 0.05 μM compound, 2.4 nM [3H] WIN-55,212-2, 90 min 37° C.; for Fold Selectivity (CB1/CB2): Table 2, ratio of Ki CB1/CB2
Sequence of CB2 receptor (P34972 whole entry): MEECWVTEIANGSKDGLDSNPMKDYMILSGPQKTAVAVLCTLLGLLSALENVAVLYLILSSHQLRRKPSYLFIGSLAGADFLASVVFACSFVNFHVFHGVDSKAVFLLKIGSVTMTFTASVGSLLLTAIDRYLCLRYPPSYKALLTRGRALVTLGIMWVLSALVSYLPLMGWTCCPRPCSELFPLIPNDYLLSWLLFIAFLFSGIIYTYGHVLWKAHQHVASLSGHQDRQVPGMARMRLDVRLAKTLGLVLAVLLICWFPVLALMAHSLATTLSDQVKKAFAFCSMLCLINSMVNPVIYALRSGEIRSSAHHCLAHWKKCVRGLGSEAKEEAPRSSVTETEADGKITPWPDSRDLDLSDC
Method in brief: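 CHO-K1 cells expressing human recombinant CB2 were incubated with compound (0.05 μM, 1% DMSO) and 2.4 nM [3H]WIN-55,212-2 in 20 mM HEPES pH 7.0, 0.5% BSA for 90 min at 37 °C. Percent inhibition of radioligand binding was reported.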

[2] = biological target: T1, CB1 receptor (Homo sapiens, UniProt P21554); experiment: cAMP Assay #2: Hit Hunter cAMP assay, Gi-coupled agonist activity, CB1; type: cell-based; set-up: host or cells: PathHunter cell lines
T1 sequence (P21554 whole entry): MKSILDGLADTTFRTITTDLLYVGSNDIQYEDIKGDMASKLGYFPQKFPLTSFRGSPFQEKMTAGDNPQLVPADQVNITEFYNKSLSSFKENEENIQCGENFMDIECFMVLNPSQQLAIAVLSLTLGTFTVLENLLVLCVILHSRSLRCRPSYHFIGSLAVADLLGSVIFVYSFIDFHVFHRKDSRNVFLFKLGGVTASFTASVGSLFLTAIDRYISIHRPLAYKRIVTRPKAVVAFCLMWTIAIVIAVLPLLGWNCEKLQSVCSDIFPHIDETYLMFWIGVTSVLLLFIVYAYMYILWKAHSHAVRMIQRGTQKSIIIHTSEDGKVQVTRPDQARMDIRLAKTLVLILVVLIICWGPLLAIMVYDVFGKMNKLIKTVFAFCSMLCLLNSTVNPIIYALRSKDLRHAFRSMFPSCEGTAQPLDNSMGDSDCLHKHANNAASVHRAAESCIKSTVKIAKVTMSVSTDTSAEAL

[3] = biological target: T1, CB1 receptor; experiment: CB1 competitive radioligand binding assay ([3H] SR141716A); set-up: expressed in transfected cells; host or cells: Chem-1 cells; conditions: for inhibition at 0.5 µM: 0.5 μM compound, 2.0 nM [3H] SR141716A, 90 min 37° C.
Method in brief: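 Chem-1 cells expressing human recombinant CB1 incubated 90 min at 37° C with 2.0 nM [3H]SR141716A and compound at 0.5 μM (1% DMSO) in HEPES pH 7.4 buffer with MgCl2, CaCl2, 0.2% BSA. Read-out is % inhibition of radioligand binding.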

[4] = biological target: T1, CB1 receptor; experiment: cAMP Assay #1: CB1 adenylylcyclase assay in CHO cells; type: cell-based; set-up: expressed in transfected cells; host or cells: CHO cells
Method in brief: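 CHO cells expressing human recombinant CB1 incubated with compound 20 min at 37 °C; agonism read as change in cAMP production. EC50 from non-linear Hill-equation fit of mean replicate concentration-response curves.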

[5] = Table 2, read-out: CB2 Binding Ki
[6] = Hit Hunter cAMP, 20 μM forskolin, control ligand CP55,940, read-out: CB1, EC50
[7] = Table 2, read-out: CB1 Binding Ki
[8] = CHO cells, 20 min 37° C., relative to 10 nM CP 55940, read-out: CB1 Activity EC50 (cAMP)

Row | Structure (SMILES) | Ki [1] | inhibition at 0.05 µM [1] | EC50 [2] | Ki [3] | inhibition at 0.5 µM [3] | EC50 [4] | Fold Selectivity (CB1/CB2) [1] | Ki [1, 5] | EC50 [2, 6] | Ki [3, 7] | EC50 [4, 8]
1 | CCCCCCC(C)(C)c1cc(O)c2c(c1)OC(C)(C)[C@@H]1CC=C(C(=O)O)C[C@@H]21 [AJA, (6aR,10aR)-1-hydroxy-6,6-dimethyl-3-(2-methyl-2-octanyl)-6a,7,10,10a-tetrahydro-6H-benzo[c]chromene-9-carboxylic acid, reference compound] | 633 nM | 0% | 77.1 nM | > 3000 nM | -1% | 4.6 nM | – | – | – | – | –
2 | CCCCCCC(C)(C)c1cc(O)c2c(c1)OC(C)(C)[C@@H]1CC=C(C(=O)NC(C)(C)CCO)C[C@@H]21 [Compound 15, (6aR,10aR)-1-Hydroxy-N-(4-hydroxy-2-methylbutan-2-yl)-6,6-dimethyl-3-(2-methyloctan-2-yl)-6a,7,10,10a-tetrahydro-6H-benzo[c]chromene-9-carboxamide] | – | 54% | – | – | 16% | – | 18.3 | 36 nM | 448 nM | 660 nM | 68 nM
3 | CCCCCCC(C)(C)c1cc(O)c2c(c1)OC(C)(C)[C@@H]1CC=C(C(=O)NC(CO)CO)C[C@@H]21 [Compound 25, (6aR,10aR)-N-(1,3-Dihydroxypropan-2-yl)-1-hydroxy-6,6-dimethyl-3-(2-methyloctan-2-yl)-6a,7,10,10a-tetrahydro-6H-benzo[c]chromene-9-carboxamide] | – | 36% | – | – | 29% | – | 4.33 | 73 nM | 360 nM | 316 nM | 16 nM
4 | CCCCCCC(C)(C)c1cc(O)c2c(c1)OC(C)(C)[C@@H]1CC=C(C(=O)OC(C)C)C[C@@H]21 [Compound 29, Isopropyl (6aR,10aR)-1-hydroxy-6,6-dimethyl-3-(2-methyloctan-2-yl)-6a,7,10,10a-tetrahydro-6H-benzo[c]chromene-9-carboxylate] | – | 79% | 9.6 nM | – | 65% | 6.8 nM | – | – | – | – | –
5 | CCCCCCC(C)(C)c1cc(O)c2c(c1)OC(C)(C)[C@@H]1CC=C(C(=O)NC[C@@H](O)CO)C[C@@H]21 [Compound 55, (6aR,10aR)-N—((R)-2,3-Dihydroxypropyl)-1-hydroxy-6,6-dimethyl-3-(2-methyloctan-2-yl)-6a,7,10,10a-tetrahydro-6H-benzo[c]chromene-9-carboxamide] | – | – | – | – | – | – | 19 | 33 nM | 175 nM | 619 nM | 45 nM
6 | CCCCCCC(C)(C)c1cc(O)c2c(c1)OC(C)(C)[C@@H]1CC=C(C(=O)NC[C@H](O)CO)C[C@@H]21 [Compound 56, (6aR,10aR)-N—((S)-2,3-Dihydroxypropyl)-1-hydroxy-6,6-dimethyl-3-(2-methyloctan-2-yl)-6a,7,10,10a-tetrahydro-6H-benzo[c]chromene-9-carboxamide] | – | – | – | – | – | – | 17 | 41 nM | 250 nM | 708 nM | 3.6 nM
